Assay results as given in patent publication US12030908B2, “Antimicrobial compounds, compositions, and uses thereof” (Lakewood Amedex, Inc., priority 2017, dated 2024).
“Also recorded” adds a separate entry of the source.

What was measured:
P. aeruginosa [1] = assay: Broth microdilution MIC at incremental pH, P. aeruginosa; type: cell-based
Description: MIC testing is conducted using the broth (Mueller Hinton Broth) microdilution procedures relevant to each organism group as established by the Clinical and Laboratory Standards Institute (CLSI; 3-7). MIC plates are prepared in accordance with CLSI (3-7). To prepare the test plates, automated liquid handlers are used to conduct serial dilutions and liquid transfers. Automated liquid handlers utilized in this study include the Multidrop 384 (Labsystems, Helsinki, Finland) and the Biomek 2000 (Beckman Coulter, Fullerton CA). The solution is diluted to desired pH using 1 M Citric Acid or 1 M NaOH buffer. A standardized inoculum of each test organism is prepared per CLSI methods (3, 5-7) to equal a 0.5 McFarland standard in the appropriate media followed by an additional 1:20 dilution (1:10 for anaerobes).
The plates are then inoculated with 10 μL of the diluted 0.5 McFarland suspension using the Biomek 2000 from low to high drug concentration, resulting in a final concentration of approximately 5×10^5 CFU/mL per well. An un-inoculated plate is incubated for the purpose of assessing solubility of the drug in the test media. The plates are stacked 3 to 4 high, covered with a sterile lid on the top plate, and incubated for 18 to 24 hours according to CLSI. The MIC is recorded as the lowest concentration of respective compound that inhibited visible growth of the organism.

Citrobacter species = assay: MIC at pH 3.5, CLSI, Mueller-Hinton broth; type: cell-based; details: 5 isolates
Description: (§1) Bacterial strains evaluated in this study include Escherichia coli, Klebsiella spp, Serratia marcescens, Proteus mirabilis/vulgaris, Citrobacter spp, Providencia spp, Morganella morganii, Pseudomonas aeruginosa, Staphylococcus aureus (MRSA only), and Enterococcus faecalis. Nu-8 test solutions are adjusted to pH 3.5 with citric acid, and […] is evaluated per the CLSI methods in Mueller-Hinton broth supplemented accordingly to facilitate growth of specific strains.

Enterococcus faecalis = assay: MIC at pH 3.5, CLSI, Mueller-Hinton broth; type: cell-based; details: 5 isolates
Description: as §1

Escherichia coli = assay: MIC at pH 3.5, CLSI, Mueller-Hinton broth; type: cell-based; details: 5 isolates
Description: as §1

Klebsiella pneumoniae = assay: MIC at pH 3.5, CLSI, Mueller-Hinton broth; type: cell-based; details: 5 isolates
Description: as §1

Morganella morganii = assay: MIC at pH 3.5, CLSI, Mueller-Hinton broth; type: cell-based; details: 5 isolates
Description: as §1

[2] = system: Proteus mirabilis/vulgaris; assay: MIC at pH 3.5, CLSI, Mueller-Hinton broth; type: cell-based; details: 5 isolates
Description: as §1

Providencia species = assay: MIC at pH 3.5, CLSI, Mueller-Hinton broth; type: cell-based; details: 5 isolates
Description: as §1

Pseudomonas aeruginosa = assay: MIC at pH 3.5, CLSI, Mueller-Hinton broth; type: cell-based; details: 20 isolates
Description: as §1

Serratia marcescens = assay: MIC at pH 3.5, CLSI, Mueller-Hinton broth; type: cell-based; details: 5 isolates
Description: as §1

[3] = system: Staphylococcus aureus (MRSA); assay: MIC at pH 3.5, CLSI, Mueller-Hinton broth; type: cell-based; details: 20 isolates
Description: as §1

bacterial strains = assay: MIC at pH 3.5 in human and mouse urine; type: cell-based
E. coli = assay: MIC in lysogeny broth (LB) at pH 4; type: cell-based
Description: (§2) The MICs are also determined using lysogeny broth (LB) at pH 4 as the growth medium. Under these conditions, Nu-8 is active against E. coli and P. aeruginosa with MICs of 54 and 27 mg/mL, respectively.

P. aeruginosa [4] = assay: MIC in lysogeny broth (LB) at pH 4; type: cell-based
Description: as §2

[5] = system: Acinetobacter baumannii (ATCC 19606); assay: Clinical signs in the Acinetobacter baumannii lung infection model (Example 25); type: in vivo, BALB/c mice; details: treated groups vs control mice
Excerpt: There was a >3 Log10) CFU/g lung decrease following treatment for 5 days when compared to the vehicle on day 1.

For `CCCCOP(=O)(O)OC[C@H]1O[C@@H](n2ccc(N)nc2=O)C[C@@H]1OP(=O)(O)OCCCC` [Nu-8, sodium ((2R,3S,5R)-5-(4-amino-2-oxopyrimidin-1(2H)-yl)-3-((butoxyoxidophosphor-yl)oxy)tetrahydrofuran-2-yl)methyl butyl phosphate], the MIC (P. aeruginosa [1]; pH 1) was 9.38 mg/mL, the MIC (P. aeruginosa [1]; pH 3) was 18.75 mg/mL and the MIC (P. aeruginosa [1]; pH 4) was 37.5 mg/mL. For the same compound, the MIC (P. aeruginosa [1]; pH 5) was 75 mg/mL, the MIC (P. aeruginosa [1]; pH 7) was greater than 75 mg/mL and the “Nu-8 MIC (mg/mL) at pH 3.5” value (Citrobacter species) was 18.75-37.5 mg/mL. The “Nu-8 MIC (mg/mL) at pH 3.5” value (Enterococcus faecalis) was 4.69-18.75 mg/mL, the “Nu-8 MIC (mg/mL) at pH 3.5” value (Escherichia coli) was 37.5 mg/mL and the “Nu-8 MIC (mg/mL) at pH 3.5” value (Klebsiella pneumoniae) was 37.5-75 mg/mL. For the same compound, the “Nu-8 MIC (mg/mL) at pH 3.5” value (Morganella morganii) was 18.75 mg/mL, the “Nu-8 MIC (mg/mL) at pH 3.5” value [2] was 4.69-18.75 mg/mL and the “Nu-8 MIC (mg/mL) at pH 3.5” value (Providencia species) was 9.38-37.5 mg/mL. For the same compound, the “MIC50 at pH 3.5” value (Pseudomonas aeruginosa) was 18.75 mg/mL, the “MIC90 at pH 3.5” value (Pseudomonas aeruginosa) was 18.75 mg/mL and the “Nu-8 MIC (mg/mL) at pH 3.5” value (Pseudomonas aeruginosa; MIC range) was 9.38-18.75 mg/mL. The “Nu-8 MIC (mg/mL) at pH 3.5” value (Serratia marcescens) was 37.5-75 mg/mL, the “MIC50 at pH 3.5” value [3] was 18.75 mg/mL and the “MIC90 at pH 3.5” value [3] was 37.5 mg/mL. The “Nu-8 MIC (mg/mL) at pH 3.5” value ([3]; MIC range) was 9.38-37.5 mg/mL, the “MICs in human and mouse urine” value (bacterial strains) was “comparable to those of Nu-8 in Mueller Hinton broth” and the MIC (E. coli) was 54 mg/mL. For the same compound, the MIC (P. aeruginosa [4]) was 27 mg/mL and the “piloerection, loss of grooming and respiratory symptoms” value [5] was “decreased piloerection, nasal discharge and gasping symptoms; also recorded: a marked decrease was observed in treated groups”.
